Reference: US20020019533A1, “PIPERIDINE DERIVATIVES AND ANTI-PLATELET AGENTS CONTAINING THE SAME” (priority 1994, published 2002)

Tests used:
serotonin 2 receptor = biological target: T1, serotonin 2 receptor (Bos taurus, UniProt Q75Z89); test: Binding affinity to the serotonin 2 receptor, [3H]-ketanserin, bovine cerebral cortex membrane; conditions: negative logarithm of Ki, 3 nM [3H]-ketanserin, 25° C., 30 minutes
T1 construct: evaluated using a bovine cerebral cortex membrane sample; from tissue; host or cells: bovine cerebral cortex membranes
Experimental: The binding affinity to the serotonin 2 receptor was evaluated using a bovine cerebral cortex membrane sample. To 200 μl of a bovine membrane sample adjusted to 50 mg (wet weight) membrane/ml were added 200 μl of 3 nM [^3H]-ketanserin and 200 μl of a test compound solution prepared by dissolving a test compound in 1.7% ethanol, followed by mixing. The mixture was incubated at 25° C. for 30 minutes and filtered with a glass filter. The radioactivity trapped on the filter was measured with a liquid scintillation counter. The non-specific binding was defined by 10^−6 M LY53857. The concentration of the test compound which inhibits 50% of the specific binding of [^3H]-ketanserin (i.e., IC50 value) was obtained, and the Ki value was calculated in accordance with the following equation. The results are shown as the negative logarithm of the Ki value (i.e., pKi value). [formula]
In the equation, Ki indicates the dissociation constant and [L] indicates the concentration of [^3H]-ketanserin.

platelet of SD rats = test: In vitro anti-platelet effect: platelet aggregation induced by ADP + serotonin in rat platelet rich plasma; type: cell-based; conditions: rat PRP, 0.5 μM or 0.8 μM ADP + serotonin, 50% inhibition of the serotonin-caused increase in aggregation
Experimental: The anti-platelet effect due to the serotonin antagonistic activity was measured in vitro using the platelet of SD rats (body weight: about 300 to 400 g, male). Platelet rich plasma (PRP) and platelet poor plasma (PPP) were prepared from blood with 0.38% sodium citrate which was obtained from aorta abdominalis of a rat under diethyl ether anesthesia. The platelet concentration of PRP was adjusted to 5×10^8 platelets/ml by adding PPP. Then, the test compound dissolved in 0.4% aqueous ethanol was added, and the mixture was incubated at 37° C. for 3 minutes. The platelet aggregation induced by addition of 0.5 μM or 0.8 μM adenosine diphosphate (ADP)+ serotonin was measured as an increase in optical transmittance of PRP. The concentration of the test compound which inhibits 50% of the increase in platelet aggregation which is obtained with serotonin without a test compound was measured, and its negative logarithm (pIC50) was calculated.

[1] = system: platelet aggregation by serotonin; test: In vivo anti-platelet effect after oral administration: ADP + serotonin induced aggregation of PRP taken 2 hours after dosing; parameters: species or system SD rats; conditions: 2 hours after administration, arabic gum group = 100%, n=3
Experimental: The anti-platelet effect due to the serotonin antagonistic activity was measured in vivo using SD rats (body weight: about 210 to 330 g, male). Two hours after the administration of the test compound, the rat was anesthetized with diethyl ether and platelet rich plasma (PRP) and platelet poor plasma (PPP) were prepared from blood with 0.38% sodium citrate which was obtained from aorta abdominalis of the rat. The platelet concentration of PRP was adjusted to 5×10^8 platelets/ml by adding PPP. Then, the PRP was incubated at 37° C. for 3 minutes, and platelet aggregation induced by addition of 0.7 μM adenosine diphosphate (ADP)+ serotonin was measured as an increase in optical transmittance of PRP. The aggregation occurred by addition of ADP alone and the maximum aggregation ratio by the simultaneous addition of ADP and serotonin were measured with respect to each group, and increase in aggregation caused by serotonin was calculated. The increase in aggregation caused by serotonin in the arabic gum administered group was taken as 100%, and the effect of the test compound was judged using as an index the increase in aggregation caused by the serotonin in the test compound-administered group (n=3).

[2] = system: head twitch of mouse induced by 5-hydroxytryptophan (5HTP); test: Inhibiting effect on head twitch of mouse induced by 5-hydroxytryptophan (5HTP); type: in vivo, ICR mouse; conditions: oral, 90 minutes before 5HTP (180 mg/kg i.p.); 50% inhibition of the number of head twitches
Experimental: The serotonin antagonistic activity in the central nerve system was evaluated by measuring the inhibiting effect on head twitch of mouse induced by 5-hydroxytryptophan (5HTP) A test compound in an amount of 1, 3, 10, or 30 mg was respectively dissolved in 100 ml of water and, 90 minutes before 5HTP administration, the solution (10 ml/kg body weight) was orally administered to a ICR mouse (body weight: 27 to 32 g, male) fasted from the previous day. As a control, 5% arabic gum was used. Carbidopa (6 mg/kg) was subcutaneously administered and, after 15 minutes, 5HTP (180 mg/kg) was intraperitoneally administered. From the 15 minutes after 5HTP administration, the number of head twitches occurred within 2 minutes were counted. The concentration of the test compound which inhibits 50% of the number of head twitches in the 5% arabic gum administered group was obtained.

T1 sequence (Q75Z89 whole entry): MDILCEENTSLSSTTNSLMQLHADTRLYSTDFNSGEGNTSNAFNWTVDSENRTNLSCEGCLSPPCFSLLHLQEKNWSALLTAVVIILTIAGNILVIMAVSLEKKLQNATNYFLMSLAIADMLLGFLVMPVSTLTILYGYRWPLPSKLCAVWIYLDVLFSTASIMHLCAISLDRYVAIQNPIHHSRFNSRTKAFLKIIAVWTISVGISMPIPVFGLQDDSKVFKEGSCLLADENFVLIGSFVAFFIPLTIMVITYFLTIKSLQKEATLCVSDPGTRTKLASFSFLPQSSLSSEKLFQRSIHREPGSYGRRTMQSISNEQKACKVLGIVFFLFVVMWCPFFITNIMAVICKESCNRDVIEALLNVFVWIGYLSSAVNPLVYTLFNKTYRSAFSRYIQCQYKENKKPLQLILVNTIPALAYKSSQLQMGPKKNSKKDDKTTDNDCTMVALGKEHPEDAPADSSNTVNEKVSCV

## O=C(NCCN1CCC(=C2c3ccccc3C=Cc3ccccc32)CC1)C1CCNCC1 [Compound 2]
Serotonin 2 receptor
  pKi: 8.6
Platelet of SD rats
  pIC50: 7.3

## O=CN1CCC(C(=O)NCCN2CCC(=C3c4ccccc4C=Cc4ccccc43)CC2)CC1 [Compound 3]
Serotonin 2 receptor
  Ki: 3.98 nM
Platelet of SD rats; Platelet
  IC50: 63.1 nM
[1]; 0.1 mg/kg oral
  Increase in aggregation by serotonin: 75.7%
[1]; 0.3 mg/kg oral
  Increase in aggregation by serotonin: 57.3%
[1]; 1 mg/kg oral
  Increase in aggregation by serotonin: 24.3%
[1]; 3 mg/kg oral
  Increase in aggregation by serotonin: 27%
[1]; 10 mg/kg oral
  Increase in aggregation by serotonin: −2.7%
[2]
  ID50: 0.39 mg/kg

## CC(C)(C)OC(=O)N1CCC(C(=O)NCCN2CCC(=C3c4ccccc4C=Cc4ccccc43)CC2)CC1 [Compound 5]
Serotonin 2 receptor
  pKi: 8.0
Platelet of SD rats
  pIC50: 6.5

## O=CN1CCC(C(=O)NCCN2CCC(=C3c4ccccc4C=Cc4ccccc43)CC2)CC1 [Compound 6]
Platelet of SD rats
  pIC50: 6.9

## CC(=O)NCC(=O)N1CCC(C(=O)NCCN2CCC(=C3c4ccccc4C=Cc4ccccc43)CC2)CC1 [Compound 8]
Serotonin 2 receptor
  pKi: 7.9
Platelet of SD rats
  pIC50: 6.6

## O=C(NCCN1CCC(=C2c3ccccc3C=Cc3ccccc32)CC1)C1CCCCN1 (centres unmarked) [Compound 9]
Serotonin 2 receptor
  pKi: 7.8
Platelet of SD rats
  pIC50: 7.1
[1]; 0.3 mg/kg oral
  Increase in aggregation by serotonin: 57.3%

## O=CN1CCN(C(=O)NCCN2CCC(=C3c4ccccc4C=Cc4ccccc43)CC2)CC1 [Compound 11]
Serotonin 2 receptor
  pKi: 8.8
Platelet of SD rats
  pIC50: 7.0

## NC1CCC(C(=O)NCCN2CCC(=C3c4ccccc4C=Cc4ccccc43)CC2)CC1 (centres unmarked) [Compound 12]
Serotonin 2 receptor
  pKi: 8.6
Platelet of SD rats
  pIC50: 6.6

## CCOC(=O)NCCN1CCC(=C2c3ccccc3C=Cc3ccccc32)CC1 [Compound 16]
Platelet of SD rats
  pIC50: 7.6

## CC(C)(C)OC(=O)NCCN1CCC(=C2c3ccccc3C=Cc3ccccc32)CC1 [Compound 17]
Platelet of SD rats
  pIC50: 7.0
[1]; 0.3 mg/kg oral
  Increase in aggregation by serotonin: 50.7%

## NC1(C(=O)NCCN2CCC(=C3c4ccccc4C=Cc4ccccc43)CC2)CCCCC1 [Compound 18]
Serotonin 2 receptor
  pKi: 8.9
Platelet of SD rats
  pIC50: 7.3
[1]; 0.3 mg/kg oral
  Increase in aggregation by serotonin: 94.9%

## CC(=O)NC1(C(=O)NCCN2CCC(=C3c4ccccc4C=Cc4ccccc43)CC2)CCCCC1 [Compound 19]
Serotonin 2 receptor
  pKi: 8.3
Platelet of SD rats
  pIC50: 6.4

## CC(C)(C)OC(=O)NC1(C(=O)NCCN2CCC(=C3c4ccccc4C=Cc4ccccc43)CC2)CCCCC1 [Compound 20]
Serotonin 2 receptor
  pKi: 8.0
Platelet of SD rats
  pIC50: 6.3

## O=CNC1(C(=O)NCCN2CCC(=C3c4ccccc4C=Cc4ccccc43)CC2)CCCCC1 [Compound 21]
Serotonin 2 receptor
  pKi: 7.8
Platelet of SD rats
  pIC50: 6.5

## CN(C)C(=O)NC1(C(=O)NCCN2CCC(=C3c4ccccc4C=Cc4ccccc43)CC2)CCCCC1 [Compound 22]
Serotonin 2 receptor
  pKi: 8.2
Platelet of SD rats
  pIC50: 5.8

## NCCCC(=O)NCCN1CCC(=C2c3ccccc3C=Cc3ccccc32)CC1 [Compound 23]
Platelet of SD rats
  pIC50: 7.6

## O=CNCCCC(=O)NCCN1CCC(=C2c3ccccc3C=Cc3ccccc32)CC1 [Compound 24]
Serotonin 2 receptor
  pKi: 9.8
Platelet of SD rats
  pIC50: 7.2

## CC(=O)NCCCC(=O)NCCN1CCC(=C2c3ccccc3C=Cc3ccccc32)CC1 [Compound 25]
Serotonin 2 receptor
  pKi: 9.2
Platelet of SD rats
  pIC50: 6.6

## CC(C)(C)OC(=O)NCCCC(=O)NCCN1CCC(=C2c3ccccc3C=Cc3ccccc32)CC1 [Compound 26]
Platelet of SD rats
  pIC50: 7.2

## CN(C)C(=O)NCCCC(=O)NCCN1CCC(=C2c3ccccc3C=Cc3ccccc32)CC1 [Compound 27]
Serotonin 2 receptor
  pKi: 9.2
Platelet of SD rats
  pIC50: 6.9

## CNCCCC(=O)NCCN1CCC(=C2c3ccccc3C=Cc3ccccc32)CC1 [Compound 28]
Platelet of SD rats
  pIC50: 6.6

## CN(CCCC(=O)NCCN1CCC(=C2c3ccccc3C=Cc3ccccc32)CC1)C(=O)OC(C)(C)C [Compound 29]
Platelet of SD rats
  pIC50: 7.1

## CC(C)(C)OC(=O)NCCCN1CCC(=C2c3ccccc3C=Cc3ccccc32)CC1 [Compound 31]
Serotonin 2 receptor
  pKi: 8.8

## C1=Cc2ccccc2C(=C2CCN(CCCCN3CCOCC3)CC2)c2ccccc21 [Compound 41]
Serotonin 2 receptor
  pKi: 8.2
Platelet of SD rats
  pIC50: 6.9
[1]; 0.3 mg/kg oral
  Increase in aggregation by serotonin: 91.5%

## C1=Cc2ccccc2C(=C2CCN(CCCCN3CCSCC3)CC2)c2ccccc21 [Compound 42]
Serotonin 2 receptor
  pKi: 8.7
Platelet of SD rats
  pIC50: 6.6

## CN1CCC(=C2c3ccccc3C=Cc3ccccc32)CC1 [cycloheptadine, reference compound]
[2]
  ID50: 0.12 mg/kg
